Experimental data reported in US5665367A, “Skin care compositions containing naringenin and/or quercetin and a retinoid” (Chesebrough-Pond's USA Co., Division of Conopco, Inc., priority 1996, dated 1997).
Read-outs that look alike come from different tables or passages of the source.

Columns and labels:
[1] = tested on: transglutaminase I (TG1) in human keratinocytes; assay: Transglutaminase assay (ELISA based TGase I assay) normalized to DNA in keratinocytes, Examples 2-4; assay type: cell-based; conditions: for inhibition of keratinocyte differentiation compared with retinoic acid: summary of the studies
Method: (§1) Human keratinocytes, isolated from neonatal foreskin by trypsin treatment were grown in Dulbecco Modification Eagle (DME) Hams F12 (1:1) medium/10% fetal calf serum in the presence of irradiated 3T3 mouse fibroblasts for establishing dividing keratinocyte colonies. Cells were grown under the above condition until their second passage and kept frozen for future use. Frozen second passage keratinocytes were thawed and plated into the above medium and grown for five days before they were switched to a serum-free MCDB 153-based medium keratinocyte growth medium (KGM) from Clonetics Corporation, San Diego, Calif., containing 0.15 mM Ca, or keratinocyte serum-free media (KSFM) from GIBCO containing 0.09 mM Ca). On day 7, when the cells were 80-90% confluent, they were trypsinized and plated in the serum-free medium for the various experiments.
(§2) During the process of terminal differentiation in the epidermis, a 15 nm thick layer of protein, known as the cornified envelope (CE) is formed on the inner surface of the cell periphery. The CE is composed of numerous distinct proteins which have been cross-linked together by the formation of N^ε -(γ-glutamyl) lysine isodipeptide bonds catalyzed by the action of at least two different transglutaminases (TGases) expressed in the epidermis. TGase 1 is expressed in abundance in the differentiated layers of the epidermis, especially the granular layer, but is absent in the undifferentiated basal epidermis. Thus TGase I is a useful marker of epidermal keratinocyte differentiation with high TGase I levels indicating a more differentiated state. An ELISA based TGase I assay, using a TGase I antibody, was used to assess the state of differentiation of the cultured keratinocytes in the examples that follow.
For Examples 2-4, the following procedure was used:
Keratinocytes (cultured as described above) were plated in 96 well plates at a density of 3,000 cells per well in 200 μl of cell culture media. After incubation for four days, the media was changed to media containing test compounds (six replicates per test). The cells were cultured for a further 72 hours after which time the media was aspirated and the plates stored at -70° C. After the plates were removed from the freezer, the cells were further freezed fractured by freezing and thawing and then washed 3x with PBS. The cells were incubated for one hour at room temperature (R/T) with TBS/5% BSA buffer. Cells were then incubated with 100 μl of monoclonal anti-human transglutaminase (IgG) mouse antibody (primary antibody) obtained from Biomedical Technologies Inc. diluted 1:2000 in TBS/1% BSA buffer for two hours at 37° C., and then rinsed six times with wash buffer (TBS/1% BSA/0.05% Tween-20). Cells were next incubated with 100 μl of Fab fragment, peroxidase conjugated anti-mouse IgG antibody (secondary antibody) from Amersham diluted 1:4,000 in wash buffer for two hours at 37° C. and then rinsed three times with wash buffer and three times with PBS. Cells were incubated with substrate solution (4mg o-phenylene diamine and 3.3 μl 30% H2 O2 in 10mL 0.1M citrate buffer, pH 5.0) for five minutes at R/T and in darkness (under aluminum foil). The reaction was stopped by the addition of 50 μl N H2 SO4. The absorbance of samples was read at 492 nm in the plate reader. Out of the six replicates, four were treated with both antibodies, two were treated only with the secondary antibody (i.e., to determine the background binding of the enzyme conjugated antibody). Transglutaminase I levels were determined by subtracted background from the readings from each treatment and determining the mean s.d. for the replicates exposed to both antibodies.
(§3) The level of TGase-1 detected after treatment of the cells could be influenced by cell number, i.e., the greater the number of cells the greater the level of TGase-1 detected. The level of TGase-1 was normalized to DNA content of the cells in the same well thus eliminating variation due to differences in cell number. […]

[2] = tested on: transglutaminase (TGase I) in human keratinocytes; assay: Transglutaminase assay (ELISA based TGase I assay) normalized to DNA in keratinocytes, Example 1; assay type: cell-based; conditions: for mean TGase/DNA × 10^-4 ± s.d / activity at 0.25 µM / activity at 0.025 µM / activity at 0.0025 µM: 72 hours, Table 1, n = 3; for decrease in transglutaminase level, dose dependence: 2.5×10^-9 to 2.5×10^-7 M; for activity at 0.25 µM / activity at 0.025 µM / activity at 0.0025 µM: Homo sapiens, Keratinocyte, read-out: mean TGase/DNA (% control)
Method: as §1, §2
For Example 1, the following procedure was used:
Keratinocytes (cultured as described above) were plated in 96 well plates at a density of 3,000 cells per well in 200 μl media. After incubation for four days the media was changed to media containing test compounds (six replicates per test). The cells were cultured for a further 72 hours after which time the media was aspirated and the plates stored at -70° C. Plates were removed from the freezer, and the cells washed with PBS. 100 μl sterile water was added and the cells were freeze fractured by freezing at -70° C. then thawing. The cells were incubated for one hour at room temperature (R/T) with PBS/3% BSA (wash buffer, bovine serum albumin), then rinsed with a fresh aliquot of wash buffer. Cells were incubated with 50 μl of primary antibodies monoclonal anti-human transglutaminase mouse antibody (IgG) obtained from Biomedical Industries diluted 1:2,000 in wash buffer for one hour, 37° C. then rinsed two times with wash buffer. Cells were then incubated with 50 μl of secondary antibody (Fab fragment, peroxidase conjugated anti-mouse IgG obtaining from Amersham) diluted 1:4,000 in wash buffer for one hour at 37° C., then rinsed two times with wash buffer. Cells were incubated with substrate solution (4 mg o-phenylene diamine and 3.3 μl 30% H2 O2 in 10 ml 0.1M citrate buffer pH 5.0) for five minutes, R/T, in darkness (under aluminum foil). The reaction was stopped by the addition of 50 μl N H2 SO4. The absorbance of samples was read at 492 nm in the plate reader. Out of the six replicates, four were treated with both antibodies, two were treated only with the secondary antibody (i.e., to determine background binding of enzyme conjugated Ab). TGase levels were determined by subtracting background from the readings from each treatment and determining mean ±s.d. for the replicates exposed to both Ab.
as §3

[3] = Example 2: 2.5×10^-7 M retinoic acid, 2.5×10^-9 M retinol, 10^-7 M naringenin alone
[4] = Example 3: 2.5×10^-7 M retinoic acid, 2.5×10^-8 M retinyl palmitate, 10^-8 M naringenin alone
[5] = Example 4: 2.5×10^-7 M retinoic acid, 2.5×10^-7 M retinol, 10^-6 M quercetin alone
[6] = 2.5 × 10^-7 M, 72 hour treatment, Table 4 (Example 4), n = 3
[7] = Homo sapiens, Keratinocyte, 72 h, 2.5 × 10^-7 M, 72 hour treatment, Table 4 (Example 4), n = 3, read-out: mean TGase/DNA (% control)

SMILES | repression of keratinocyte TG1 level (in words) [1, 3] | repression of keratinocyte TG1 level (in words) [1, 4] | repression of keratinocyte TG1 level (in words) [1, 5] | decrease in transglutaminase level, dose dependence [2] | activity at 0.25 µM ([2]; 2.5 × 10^-7 M) | activity at 0.025 µM ([2]; 2.5 × 10^-8 M) | activity at 0.0025 µM ([2]; 2.5 × 10^-9 M) | mean TGase/DNA × 10^-5 ± s.d [1, 6] | activity at 0.25 µM [1, 7] | inhibition of keratinocyte differentiation compared with retinoic acid [1] | also measured
O=C1C[C@@H](c2ccc(O)cc2)Oc2cc(O)cc(O)c21 [Naringenin, naringenin] | no inhibitory effect | small inhibitory effect |  |  |  |  |  |  |  |  | mean TGase/DNA × 10^-5 ± s.d ([1]; 10^-7 M naringenin, 72 hour treatment, Table 2 (Example 2), n = 3): 49.84 ± 2.76 × 10^-5; mean TGase/DNA × 10^-5 ± s.d ([1]; 10^-8 M naringenin, 72 hour treatment, Table 3 (Example 3), n = 3): 45.01 ± 1.90 × 10^-5; activity at 0.1 µM ([1]; Homo sapiens, Keratinocyte, 72 h, 10^-7 M naringenin, 72 hour treatment, Table 2 (Example 2), n = 3, read-out: mean TGase/DNA (% control)): 94%; activity at 0.01 µM ([1]; Homo sapiens, Keratinocyte, 72 h, 10^-8 M naringenin, 72 hour treatment, Table 3 (Example 3), n = 3, read-out: mean TGase/DNA (% control)): 89%
O=c1c(O)c(-c2ccc(O)c(O)c2)oc2cc(O)cc(O)c12 [Quercetin, quercetin] |  |  | only a small inhibitory effect |  |  |  |  |  |  |  | mean TGase/DNA × 10^-5 ± s.d ([1]; 10^-6 M quercetin, 72 hour treatment, Table 4 (Example 4), n = 3): 59.04 ± 3.38 × 10^-5; activity at 1 µM ([1]; Homo sapiens, Keratinocyte, 72 h, 10^-6 M quercetin, 72 hour treatment, Table 4 (Example 4), n = 3, read-out: mean TGase/DNA (% control)): 85%
CC1=C(/C=C/C(C)=C/C=C/C(C)=C/C(=O)O)C(C)(C)CCC1 [Retinoic acid, retinoic acid] | very effective | very effective | effective | in a dose dependant manner decreased transglutaminase I levels | 7% | 55% | 77% | 35.91 ± 3.01 × 10^-5 | 52% |  | mean TGase/DNA × 10^-4 ± s.d ([2]; 2.5 × 10^-7 M): 0.16 ± 0.11 × 10^-4; mean TGase/DNA × 10^-4 ± s.d ([2]; 2.5 × 10^-8 M): 1.34 ± 0.40 × 10^-4; mean TGase/DNA × 10^-4 ± s.d ([2]; 2.5 × 10^-9 M): 1.87 ± 0.49 × 10^-4; decrease in transglutaminase level, dose dependence ([2]; listed as retinoic acid): dose dependent; effect on keratinocyte differentiation ([2]; all concentrations tested, versus ethanol control, Example 1): decreased keratinocyte differentiation; extent of decrease versus corresponding retinol treatments ([2]; all concentrations tested, Example 1): significantly greater extent; mean TGase/DNA × 10^-5 ± s.d ([1]; 2.5 × 10^-7 M RA, 72 hour treatment, Table 2 (Example 2), n = 3): 22.47 ± 2.31 × 10^-5; mean TGase/DNA × 10^-5 ± s.d ([1]; 2.5 × 10^-7 M RA, 72 hour treatment, Table 3 (Example 3), n = 3): 16.31 ± 2.58 × 10^-5; activity at 0.25 µM ([1]; Homo sapiens, Keratinocyte, 72 h, 2.5 × 10^-7 M RA, 72 hour treatment, Table 2 (Example 2), n = 3, read-out: mean TGase/DNA (% control)): 42%; activity at 0.25 µM ([1]; Homo sapiens, Keratinocyte, 72 h, 2.5 × 10^-7 M RA, 72 hour treatment, Table 3 (Example 3), n = 3, read-out: mean TGase/DNA (% control)): 32%
CC1=C(/C=C/C(C)=C/C=C/C(C)=C/CO)C(C)(C)CCC1 [Retinol, retinol] | ineffective |  | ineffective | dose dependent | 47% | 77% | > 100% | 61.93 ± 5.18 × 10^-5 | 90% | significantly less effective than retinoic acid | mean TGase/DNA × 10^-5 ± s.d ([1]; 2.5 × 10^-9 M retinol, 72 hour treatment, Table 2 (Example 2), n = 3): 48.31 ± 5.31 × 10^-5; mean TGase/DNA (% control) ([1]; 2.5 × 10^-9 M retinol, 72 hour treatment, Table 2 (Example 2), n = 3, 0.0025 µM, 4320 min): 91%; activity at 0.0025 µM ([1]; Homo sapiens, Keratinocyte, 72 h, 2.5 × 10^-9 M retinol, 72 hour treatment, Table 2 (Example 2), n = 3, read-out: mean TGase/DNA (% control)): 92%
CCCCCCCCCCCCCCCC(=O)OC/C=C(C)/C=C/C=C(C)/C=C/C1=C(C)CCCC1(C)C [Retinyl palmitate, retinyl palmitate] |  | ineffective |  |  |  |  |  |  |  | significantly less effective than retinoic acid | mean TGase/DNA × 10^-5 ± s.d ([1]; 2.5 × 10^-8 M retinyl palmitate, 72 hour treatment, Table 3 (Example 3), n = 3): 47.32 ± 4.22 × 10^-5; activity at 0.025 µM ([1]; Homo sapiens, Keratinocyte, 72 h, 2.5 × 10^-8 M retinyl palmitate, 72 hour treatment, Table 3 (Example 3), n = 3, read-out: mean TGase/DNA (% control)): 93%
